The text below walks through data of PMC8151276, “An Integrated Approach toward NanoBRET Tracers for Analysis of GPCR Ligand Engagement” (Molecules, 2021).

The structures appear in SMILES notation.

Common to all, as to assay type: binding
The target of assay [1] is T1, C5AR2 (Homo sapiens, UniProt Q9P296).
T1 construct: purchased Promega (in-house HiBiT-GPCR construct library, NanoBRET)
Briefly: NanoBRET screen HiBiT-C5AR2 in HEK293. The settings on record: C5AR2. The protocol:
(§1) Each tracer candidate was screened across the entire library of HiBiT-GPCR constructs using NanoBRET as the detection modality. As depicted in Figure 4A, the specificity of interactions was evaluated through decrease in BRET due to competitive displacement of a bound tracer by excess parental compound. Each tracer was analyzed for binding to each HiBiT-GPCR fusion in the absence and in the presence of competing parental compound. Briefly, HEK293 cells were transfected with HiBiT-GPCR constructs diluted into promoterless DNA to reduce expression and maximize translocation to the cell surface. Each tracer candidate was then screened at concentrations of 1 μM and 0.1 μM across cells expressing these fusions. Cells were treated for 1.5 h with tracer either alone or in the presence of 20 μM competing parental compound (i.e., control). BRET was measured upon addition of purified LgBiT and subsequent complementation with HiBiT genetically fused to a GPCR. The specificity of interactions was assessed through a decrease in BRET signal due to competitive displacement of the bound tracer. To further gauge the robustness of these interactions, the fold response over the control (i.e., BRETtracer/BRETcontrol) was calculated. We chose a 1.5-fold response, which translates to ≥7-fold signal over noise as the minimal threshold required to score an interaction as positive. […]. Below we highlight the screening results obtained for our exemplary fluorescent tracers based on Clozapine, Amitriptyline and AZD1283.
(§2) HiBiT-GPCR DNA constructs were diluted in 10 mM Tris pH 8 to a final concentration of 0.01 μg/μL, arrayed in 96-well plates and stored at −20 °C. For transfection, HEK293 cells were suspended in Opti-MEM (without phenol red) supplemented with 2% fetal bovine serum (Seradigm) and 100 units/mL penicillin–streptomycin (Gibco) at a final concentration of 220,000 cells/mL and dispensed into white 96-well plates at 90 μL/well. Subsequent transfections and screens were carried using an Agilent Bravo Automated Liquid Handling Platform. First, the 96-well HiBiT DNA arrays were diluted 25-fold in Opti-MEM (without serum or phenol red) to a final concentration of 0.0004 μg/μL and 20 μL of the diluted DNAs were transferred into new 96-well plates. Next, promoterless carrier DNA (1 μg/μL) was diluted 25-fold (0.04 μg/μL) and then dispensed into the diluted arrays at 20 μL/well. Following brief mixing, Viafect transfection reagent (Promega) diluted 16-fold into Opti-MEM was dispensed into the plates at 40 μL/well. After mixing by pipetting, plates were incubated for 10 min on the pipetting station deck. The DNA-transfection reagent complexes were then added to plates containing cells. To facilitate the screen, 10 μL of DNA-transfection reagent complexes were added in duplicates to the top 4 and bottom 4 rows, resulting in two identical 48-well arrays per plate. Plates with transfected cells were incubated for 18–20 h at 37 °C/5% CO2. A screen of each tracer across the entire library using two different concentrations requires duplicate plates of transfected cells. Depending on the number of tracers being screened, transfections can be scaled up using the same ratios. The next day, for each tracer, four 20× screening solutions in tracer dilution buffer (Promega) were prepared: two duplicates at final concentration of 20 μM and two duplicates at a final concentration of 2 μM. A competing unmodified compound was added to one of each duplicate at a final concentration of 400 μM. The four resulting solutions were diluted 4-fold in Opti-MEM without serum or phenol red to generate 5× solutions (5 µM and 0.5 µM tracer +/− 100 μM competing compound). To screen the library, a BioTek MultiFlo FX liquid dispenser was used to dispense 22.5 µL of tracer solution to the top 4 rows and 22.5 µL tracer + competing compound solution to the 4 bottom rows. Plates were briefly mixed on an orbital shaker and incubated for 1.5 h at room temperature. […]

Assay [2] concerns the target T2, CXCR6 (Homo sapiens, UniProt O00574).
T2 construct: purchased Promega (in-house HiBiT-GPCR construct library, NanoBRET)
Nature of the assay: NanoBRET screen HiBiT-CXCR6 in HEK293. To be noted: CXCR6. The protocol:
as §1, §2

Assay [3] deals with T3, CXCR1 (Homo sapiens, UniProt P25024).
T3 construct: purchased Promega (in-house HiBiT-GPCR construct library, NanoBRET)
T3 sequence (P25024 1-350): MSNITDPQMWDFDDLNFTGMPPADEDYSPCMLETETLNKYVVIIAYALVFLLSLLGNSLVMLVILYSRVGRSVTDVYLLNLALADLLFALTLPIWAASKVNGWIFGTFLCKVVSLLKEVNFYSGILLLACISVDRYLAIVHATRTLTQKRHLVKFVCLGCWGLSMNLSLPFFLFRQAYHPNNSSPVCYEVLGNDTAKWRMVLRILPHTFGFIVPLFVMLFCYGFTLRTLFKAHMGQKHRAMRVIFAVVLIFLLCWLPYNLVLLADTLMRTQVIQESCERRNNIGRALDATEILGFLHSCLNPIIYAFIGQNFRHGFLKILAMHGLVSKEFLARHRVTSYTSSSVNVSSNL
Nature of the assay: NanoBRET screen HiBiT-CXCR1 in HEK293. The settings on record: CXCR1. The protocol: as §1, §2

In assay [4] the target is T4, GABBR1 (Homo sapiens, UniProt Q9UBS5).
T4 construct: purchased Promega (in-house HiBiT-GPCR construct library, NanoBRET)
T4 sequence (Q9UBS5 15-961 limits assumed): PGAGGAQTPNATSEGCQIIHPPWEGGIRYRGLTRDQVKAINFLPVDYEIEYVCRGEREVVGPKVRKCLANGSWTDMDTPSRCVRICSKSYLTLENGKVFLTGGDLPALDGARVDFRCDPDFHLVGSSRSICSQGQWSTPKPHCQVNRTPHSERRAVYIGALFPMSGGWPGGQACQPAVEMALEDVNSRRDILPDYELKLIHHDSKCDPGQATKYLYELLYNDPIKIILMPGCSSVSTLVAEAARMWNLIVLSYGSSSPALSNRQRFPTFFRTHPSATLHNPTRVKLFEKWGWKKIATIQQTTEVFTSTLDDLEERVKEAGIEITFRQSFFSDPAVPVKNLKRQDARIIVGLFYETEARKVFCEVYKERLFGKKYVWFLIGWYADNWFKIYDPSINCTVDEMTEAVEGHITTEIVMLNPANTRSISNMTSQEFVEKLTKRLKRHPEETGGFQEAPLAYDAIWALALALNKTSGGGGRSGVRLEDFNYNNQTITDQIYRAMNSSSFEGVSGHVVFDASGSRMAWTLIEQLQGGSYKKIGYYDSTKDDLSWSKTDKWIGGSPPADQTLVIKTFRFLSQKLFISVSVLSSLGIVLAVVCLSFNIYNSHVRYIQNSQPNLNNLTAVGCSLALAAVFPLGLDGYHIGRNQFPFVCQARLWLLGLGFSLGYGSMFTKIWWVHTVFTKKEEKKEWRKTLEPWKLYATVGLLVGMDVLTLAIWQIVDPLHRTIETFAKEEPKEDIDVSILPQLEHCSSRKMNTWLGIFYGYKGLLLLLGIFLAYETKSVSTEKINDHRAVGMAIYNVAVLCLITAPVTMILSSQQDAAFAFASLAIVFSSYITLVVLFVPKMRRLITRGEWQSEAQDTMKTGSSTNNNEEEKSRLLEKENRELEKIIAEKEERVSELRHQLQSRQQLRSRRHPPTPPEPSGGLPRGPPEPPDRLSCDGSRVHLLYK
Briefly: NanoBRET screen HiBiT-GABBR1 in HEK293. To be noted: GABBR1. The protocol: as §1, §2

Assay [5] deals with T5, CXCR2 (Homo sapiens, UniProt P25025).
T5 construct: purchased Promega (in-house HiBiT-GPCR construct library, NanoBRET)
T5 sequence (P25025 1-360): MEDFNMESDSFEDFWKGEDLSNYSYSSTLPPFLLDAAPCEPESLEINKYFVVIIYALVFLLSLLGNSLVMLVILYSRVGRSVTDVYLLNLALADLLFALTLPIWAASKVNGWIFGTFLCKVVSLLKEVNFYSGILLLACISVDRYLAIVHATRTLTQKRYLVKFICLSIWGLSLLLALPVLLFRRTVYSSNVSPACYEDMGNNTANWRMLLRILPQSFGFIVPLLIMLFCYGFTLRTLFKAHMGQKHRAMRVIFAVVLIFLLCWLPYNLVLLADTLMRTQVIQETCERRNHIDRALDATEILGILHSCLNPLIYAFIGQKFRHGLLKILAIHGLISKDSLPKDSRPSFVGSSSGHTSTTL
Briefly: NanoBRET screen HiBiT-CXCR2 in HEK293. The settings on record: CXCR2. The protocol: as §1, §2

For assay [6], the target named is T6, SMO (Homo sapiens, UniProt Q99835).
T6 construct: purchased Promega (in-house HiBiT-GPCR construct library, NanoBRET)
T6 sequence (Q99835 28-787): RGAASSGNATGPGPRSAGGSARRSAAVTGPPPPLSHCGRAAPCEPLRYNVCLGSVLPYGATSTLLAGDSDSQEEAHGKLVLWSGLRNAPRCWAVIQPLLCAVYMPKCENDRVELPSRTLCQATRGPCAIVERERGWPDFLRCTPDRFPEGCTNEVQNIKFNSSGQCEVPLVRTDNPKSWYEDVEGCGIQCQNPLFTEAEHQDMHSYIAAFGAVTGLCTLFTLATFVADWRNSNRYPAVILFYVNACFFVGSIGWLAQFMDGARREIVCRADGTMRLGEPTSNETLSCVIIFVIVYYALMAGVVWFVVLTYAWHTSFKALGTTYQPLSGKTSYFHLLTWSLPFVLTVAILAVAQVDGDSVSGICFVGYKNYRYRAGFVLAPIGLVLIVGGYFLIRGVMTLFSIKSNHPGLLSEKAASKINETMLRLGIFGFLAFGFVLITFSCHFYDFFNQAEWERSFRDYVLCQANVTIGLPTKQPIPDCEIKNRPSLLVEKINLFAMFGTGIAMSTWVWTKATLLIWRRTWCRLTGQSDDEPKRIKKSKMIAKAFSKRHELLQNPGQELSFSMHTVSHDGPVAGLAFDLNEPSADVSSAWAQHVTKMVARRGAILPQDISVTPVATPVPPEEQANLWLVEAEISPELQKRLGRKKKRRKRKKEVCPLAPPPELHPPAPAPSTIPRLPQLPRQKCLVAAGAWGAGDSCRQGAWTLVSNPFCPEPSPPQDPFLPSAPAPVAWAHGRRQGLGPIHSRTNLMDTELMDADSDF
Briefly: NanoBRET screen HiBiT-SMO in HEK293. The settings on record: SMO. The protocol:
as §1, §2

T1 sequence (Q9P296 whole entry): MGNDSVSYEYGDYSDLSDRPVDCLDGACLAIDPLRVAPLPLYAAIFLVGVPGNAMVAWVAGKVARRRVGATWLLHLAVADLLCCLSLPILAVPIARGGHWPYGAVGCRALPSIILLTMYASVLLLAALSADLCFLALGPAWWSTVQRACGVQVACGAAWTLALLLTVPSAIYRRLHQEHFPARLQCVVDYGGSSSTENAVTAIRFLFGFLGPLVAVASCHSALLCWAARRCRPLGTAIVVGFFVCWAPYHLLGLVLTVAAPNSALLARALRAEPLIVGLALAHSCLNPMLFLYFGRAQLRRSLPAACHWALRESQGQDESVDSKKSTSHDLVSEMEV
T2 sequence (O00574 whole entry): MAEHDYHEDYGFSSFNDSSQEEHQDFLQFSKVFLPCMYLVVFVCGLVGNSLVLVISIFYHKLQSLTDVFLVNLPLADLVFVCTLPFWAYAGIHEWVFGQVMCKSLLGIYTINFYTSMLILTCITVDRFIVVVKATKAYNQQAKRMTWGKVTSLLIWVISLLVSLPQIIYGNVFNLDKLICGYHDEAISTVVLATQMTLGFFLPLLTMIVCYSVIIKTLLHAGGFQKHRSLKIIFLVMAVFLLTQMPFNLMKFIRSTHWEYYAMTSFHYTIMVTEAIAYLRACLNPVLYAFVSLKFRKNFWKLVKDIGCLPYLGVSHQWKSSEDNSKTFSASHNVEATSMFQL

Regarding `CC(C)N(CC[C@H](c1ccccc1)c1cc(CCNC(=O)c2ccc(CNC(=O)CCc3ccc4n3[B-](F)(F)[N+]3=C(c5ccc[nH]5)C=CC3=C4)cc2)ccc1O)C(C)C` [Tolterodine-BZ-NB590], the “NanoBRET Fold Response” value in assay [1] (tracer 0.1μM) came out at 1.05; in assay [1] (tracer 1μM), 1.08; in assay [2] (tracer 0.1μM), 0.99; in assay [2] (tracer 1μM), 0.98; in assay [3] (tracer 0.1μM) it was 0.98; in assay [3] (tracer 1μM), 1.11. Moreover, the “NanoBRET Fold Response” value was found to be 0.92 in assay [4] (tracer 0.1μM); 0.87 in assay [4] (tracer 1μM); 0.99 in assay [5] (tracer 0.1μM); 1.06 in assay [5] (tracer 1μM); 0.93 in assay [6] (tracer 0.1μM); 0.94 in assay [6] (tracer 1μM).
As for `O=C(CCc1ccc2n1[B-](F)(F)[N+]1=C(c3ccc[nH]3)C=CC1=C2)NCCOCCOCCNC(=O)OCCOCCN1CCN(C2=Nc3ccccc3Sc3ccccc32)CC1` [Quetiapine-a-2-NB590], the “NanoBRET Fold Response” value in assay [1] (tracer 0.1μM) is reported as 1.04; in assay [1] (tracer 1μM), 0.77; in assay [2] (tracer 0.1μM), 0.98; in assay [2] (tracer 1μM) it was 1.12; in assay [3] (tracer 0.1μM), 0.98; in assay [3] (tracer 1μM), 0.95. Also, the “NanoBRET Fold Response” value in assay [4] (tracer 0.1μM) is 1.22; in assay [4] (tracer 1μM), 0.93; in assay [5] (tracer 0.1μM), 1.03; in assay [5] (tracer 1μM), 0.97; in assay [6] (tracer 0.1μM) it was 0.94; in assay [6] (tracer 1μM), 0.96.
For `CN1CCN(C2=Nc3cc(Cl)ccc3Nc3ccc(CNC(=O)CCOCCOCCOCCOCCNC(=O)CCc4ccc5n4[B-](F)(F)[N+]4=C(c6ccc[nH]6)C=CC4=C5)cc32)CC1` [Clozapine-b-2-NB590], the “NanoBRET Fold Response” value in assay [1] (0.1μM tracer) is 0.99; in assay [1] (1μM tracer), 1.01; in assay [2] (0.1μM tracer), 1.01; in assay [2] (1μM tracer), 1.00; in assay [3] (0.1μM tracer) it was 1.00; in assay [3] (1μM tracer), 0.99. Moreover, the “NanoBRET Fold Response” value is reported as 0.93 in assay [4] (0.1μM tracer); 1.38 in assay [4] (1μM tracer); 0.98 in assay [5] (0.1μM tracer); 1.06 in assay [5] (1μM tracer); 1.13 in assay [6] (0.1μM tracer); 0.80 in assay [6] (1μM tracer).
For the compound `CC(C)N(CC[C@H](c1ccccc1)c1cc(CCNC(=O)CCOCCOCCOCCOCCNC(=O)CCc2ccc3n2[B-](F)(F)[N+]2=C(c4ccc[nH]4)C=CC2=C3)ccc1O)C(C)C` [Tolterodine-2-NB590], the “NanoBRET Fold Response” value in assay [1] (tracer 0.1μM) came out at 0.98; in assay [1] (tracer 1μM), 0.92; in assay [2] (tracer 0.1μM), 0.89; in assay [2] (tracer 1μM), 0.91; in assay [3] (tracer 0.1μM), 1.27; in assay [3] (tracer 1μM), 1.06. The “NanoBRET Fold Response” value stood at 1.32 in assay [4] (tracer 0.1μM); 1.14 in assay [4] (tracer 1μM); 0.96 in assay [5] (tracer 0.1μM); 0.98 in assay [5] (tracer 1μM); 0.73 in assay [6] (tracer 0.1μM); 0.83 in assay [6] (tracer 1μM).
Regarding `Cc1cc2c(s1)Nc1ccccc1N=C2N1CCN(CCCNC(=O)CCOCCOCCOCCOCCNC(=O)CCc2ccc3n2[B-](F)(F)[N+]2=C(c4ccc[nH]4)C=CC2=C3)CC1` [Olanzapine-a-2-NB590], the “NanoBRET Fold Response” value is listed as 0.95 in assay [1] (tracer 0.1μM); 0.97 in assay [1] (tracer 1μM); 1.00 in assay [2] (tracer 0.1μM); 0.98 in assay [2] (tracer 1μM); 1.00 in assay [3] (tracer 0.1μM); 0.99 in assay [3] (tracer 1μM). Further, the “NanoBRET Fold Response” value in assay [4] (tracer 0.1μM) turned out to be 0.94; in assay [4] (tracer 1μM), 1.20; in assay [5] (tracer 0.1μM), 0.97; in assay [5] (tracer 1μM), 1.08; in assay [6] (tracer 0.1μM) it was 1.12; in assay [6] (tracer 1μM), 0.82.
For the compound `N#CN=C(NCCCOc1cccc(CN2CCCCC2)c1)NCCNC(=O)CCOCCOCCOCCOCCNC(=O)CCc1ccc2n1[B-](F)(F)[N+]1=C(c3ccc[nH]3)C=CC1=C2` [Aminopotentidine-2-NB590], the “NanoBRET Fold Response” value was found to be 1.06 in assay [1] (tracer 0.1μM); 1.03 in assay [1] (tracer 1μM); 1.06 in assay [2] (tracer 0.1μM); 1.03 in assay [2] (tracer 1μM); 1.03 in assay [3] (tracer 0.1μM); 0.99 in assay [3] (tracer 1μM). Besides, the “NanoBRET Fold Response” value amounted to 1.06 in assay [4] (tracer 0.1μM); 1.00 in assay [4] (tracer 1μM); 0.90 in assay [5] (tracer 0.1μM); 0.95 in assay [5] (tracer 1μM); 1.03 in assay [6] (tracer 0.1μM); 0.91 in assay [6] (tracer 1μM).
Regarding `Cc1nc2n(c(=O)c1CCN1CCC(c3noc4cc(F)ccc34)CC1)CCCC2OC(=O)NCCOCCOCCOCCOCCNC(=O)CCc1ccc2n1[B-](F)(F)[N+]1=C(c3ccc[nH]3)C=CC1=C2` (stereo not drawn) [Risperidone-2-NB590], the “NanoBRET Fold Response” value stood at 1.06 in assay [1] (tracer 0.1μM); 1.07 in assay [1] (tracer 1μM); 1.00 in assay [2] (tracer 0.1μM); 1.24 in assay [2] (tracer 1μM); 1.01 in assay [3] (tracer 0.1μM); 0.91 in assay [3] (tracer 1μM). Also, the “NanoBRET Fold Response” value in assay [4] (tracer 0.1μM) is 1.09; in assay [4] (tracer 1μM) it was 0.87; in assay [5] (tracer 0.1μM), 1.09; in assay [5] (tracer 1μM), 0.99; in assay [6] (tracer 0.1μM), 0.86; in assay [6] (tracer 1μM), 1.00.
